We go through 2 compounds from article PMC3408863 (European journal of medicinal chemistry, 2012).

Assay [1] has as its target human FXa (Homo sapiens, UniProt P00742). In words: Direct inhibition of FXa, chromogenic substrate hydrolysis assay. Format: biochemical.
The target in assay [2] is Human FIIa (Homo sapiens, UniProt P00734). In words: Chromogenic substrate hydrolysis assay, FIIa. Format: biochemical. Particulars: FXa over Human FIIa.
For assay [3], the target named is Human FVIIa (Homo sapiens, UniProt P08709). The experiment in a line: Chromogenic substrate hydrolysis assay, FVIIa. Format: biochemical. Particulars: FXa over Human FVIIa.
For assay [4], the target named is Human FIXa (Homo sapiens, UniProt P00740). In words: Chromogenic substrate hydrolysis assay, FIXa. Format: biochemical. Particulars: FXa over Human FIXa.
Assay [5] deals with Human FXIa (Homo sapiens, UniProt P03951). In words: Chromogenic substrate hydrolysis assay, FXIa. Format: biochemical. Particulars: FXa over Human FXIa.
The target in assay [6] is T1, Human FXIIa (Homo sapiens, UniProt P00748).
T1 sequence (P00748 373-615 limits assumed): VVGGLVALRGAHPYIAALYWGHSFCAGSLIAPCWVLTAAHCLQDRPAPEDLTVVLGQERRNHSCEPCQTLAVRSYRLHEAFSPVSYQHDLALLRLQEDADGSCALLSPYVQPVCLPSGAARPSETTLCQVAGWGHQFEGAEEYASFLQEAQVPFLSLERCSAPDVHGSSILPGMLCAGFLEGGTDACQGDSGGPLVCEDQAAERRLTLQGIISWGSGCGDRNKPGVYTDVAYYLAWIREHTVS
T1 sequence (P00748 20-372 limits assumed): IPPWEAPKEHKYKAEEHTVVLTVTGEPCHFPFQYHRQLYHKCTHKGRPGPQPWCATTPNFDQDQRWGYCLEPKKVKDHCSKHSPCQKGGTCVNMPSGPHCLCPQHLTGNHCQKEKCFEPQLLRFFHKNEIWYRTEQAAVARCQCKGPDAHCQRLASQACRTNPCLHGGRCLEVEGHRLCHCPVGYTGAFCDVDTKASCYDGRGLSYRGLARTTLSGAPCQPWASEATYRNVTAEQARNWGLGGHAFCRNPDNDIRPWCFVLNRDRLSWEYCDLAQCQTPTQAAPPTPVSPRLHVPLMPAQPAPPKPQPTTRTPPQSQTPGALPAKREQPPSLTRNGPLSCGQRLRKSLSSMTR
The experiment in a line: Chromogenic substrate hydrolysis assay, FXIIa. Format: biochemical. Particulars: FXa over Human FXIIa.

Assay [7] concerns the target T2, Bovine Trypsin (Bos taurus, UniProt P00760).
T2 sequence (P00760 24-246): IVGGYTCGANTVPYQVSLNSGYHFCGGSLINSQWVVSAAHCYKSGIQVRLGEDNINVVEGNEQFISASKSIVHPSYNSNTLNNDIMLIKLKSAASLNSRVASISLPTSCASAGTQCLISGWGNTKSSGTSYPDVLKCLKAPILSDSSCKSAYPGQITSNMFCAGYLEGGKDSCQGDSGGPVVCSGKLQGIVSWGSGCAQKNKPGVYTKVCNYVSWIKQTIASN
The experiment in a line: Chromogenic substrate hydrolysis assay, trypsin. Format: biochemical.

Assay [8] deals with Bovine Chymotrypsin (Bos taurus, UniProt P00766). In words: Chromogenic substrate hydrolysis assay, chymotrypsin. Format: biochemical. Particulars: FXa over chymotrypsin.
Assay [9] relates to human plasma. Particulars: comparators in clinical trials; cited from earlier work.

Counter-ions that a name gives are not always drawn.

human FXa, sequence (P00742 235-488 limits assumed): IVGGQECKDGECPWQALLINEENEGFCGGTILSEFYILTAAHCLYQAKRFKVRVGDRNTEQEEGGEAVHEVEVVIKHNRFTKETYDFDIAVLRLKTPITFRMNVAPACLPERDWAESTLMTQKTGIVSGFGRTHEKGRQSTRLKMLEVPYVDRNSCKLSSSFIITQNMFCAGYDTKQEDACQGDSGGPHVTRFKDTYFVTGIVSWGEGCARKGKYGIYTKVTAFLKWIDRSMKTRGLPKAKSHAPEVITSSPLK
human FXa, sequence (P00742 41-179 limits assumed): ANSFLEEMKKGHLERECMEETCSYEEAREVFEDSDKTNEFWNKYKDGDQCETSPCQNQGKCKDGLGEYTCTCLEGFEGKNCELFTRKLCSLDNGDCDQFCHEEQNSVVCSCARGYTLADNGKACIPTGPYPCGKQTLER
Human FXIa, sequence (P03951 388-625 limits assumed): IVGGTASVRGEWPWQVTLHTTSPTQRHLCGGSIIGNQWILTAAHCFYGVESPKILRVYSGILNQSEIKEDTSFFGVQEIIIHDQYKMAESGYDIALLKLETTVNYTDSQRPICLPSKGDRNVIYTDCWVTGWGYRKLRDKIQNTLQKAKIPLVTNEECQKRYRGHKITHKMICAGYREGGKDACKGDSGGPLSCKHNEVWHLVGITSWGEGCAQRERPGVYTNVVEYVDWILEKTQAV
Human FXIa, sequence (P03951 19-387 limits assumed): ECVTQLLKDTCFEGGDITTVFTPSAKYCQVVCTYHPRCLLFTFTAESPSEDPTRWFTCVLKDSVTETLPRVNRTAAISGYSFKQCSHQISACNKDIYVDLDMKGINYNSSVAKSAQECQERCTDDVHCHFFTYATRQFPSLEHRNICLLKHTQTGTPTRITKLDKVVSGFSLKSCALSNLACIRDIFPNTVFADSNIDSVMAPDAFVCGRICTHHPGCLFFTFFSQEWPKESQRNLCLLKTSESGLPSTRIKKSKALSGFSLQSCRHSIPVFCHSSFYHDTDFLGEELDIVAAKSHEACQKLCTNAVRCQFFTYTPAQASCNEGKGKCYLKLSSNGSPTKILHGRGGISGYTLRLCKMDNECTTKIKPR
Human FIXa, sequence (P00740 227-461 limits assumed): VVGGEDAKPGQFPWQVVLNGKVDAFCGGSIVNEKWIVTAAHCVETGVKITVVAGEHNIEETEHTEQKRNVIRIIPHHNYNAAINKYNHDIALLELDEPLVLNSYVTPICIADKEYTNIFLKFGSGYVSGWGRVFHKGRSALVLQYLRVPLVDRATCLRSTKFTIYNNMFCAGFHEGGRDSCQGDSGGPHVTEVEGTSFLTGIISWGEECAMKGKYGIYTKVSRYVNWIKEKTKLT
Human FIXa, sequence (P00740 47-191 limits assumed): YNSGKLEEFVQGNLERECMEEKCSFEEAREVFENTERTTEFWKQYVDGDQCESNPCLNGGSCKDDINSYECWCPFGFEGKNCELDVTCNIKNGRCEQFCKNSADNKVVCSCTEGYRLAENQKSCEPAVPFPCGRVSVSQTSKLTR
Human FVIIa, sequence (P08709 213-466 limits assumed): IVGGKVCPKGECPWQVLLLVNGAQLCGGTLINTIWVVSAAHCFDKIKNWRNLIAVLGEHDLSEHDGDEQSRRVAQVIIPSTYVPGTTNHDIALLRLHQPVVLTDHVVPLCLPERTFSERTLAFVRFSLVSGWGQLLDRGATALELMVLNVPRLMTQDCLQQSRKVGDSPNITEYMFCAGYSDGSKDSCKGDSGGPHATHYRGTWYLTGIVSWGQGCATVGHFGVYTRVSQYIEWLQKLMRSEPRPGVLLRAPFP
Human FVIIa, sequence (P08709 61-212 limits assumed): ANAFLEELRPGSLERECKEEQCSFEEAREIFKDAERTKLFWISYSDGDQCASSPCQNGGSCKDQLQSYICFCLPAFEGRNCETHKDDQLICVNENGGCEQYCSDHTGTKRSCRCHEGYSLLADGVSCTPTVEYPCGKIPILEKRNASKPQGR
Human FVIIa, sequence (P13726 33-295 partner): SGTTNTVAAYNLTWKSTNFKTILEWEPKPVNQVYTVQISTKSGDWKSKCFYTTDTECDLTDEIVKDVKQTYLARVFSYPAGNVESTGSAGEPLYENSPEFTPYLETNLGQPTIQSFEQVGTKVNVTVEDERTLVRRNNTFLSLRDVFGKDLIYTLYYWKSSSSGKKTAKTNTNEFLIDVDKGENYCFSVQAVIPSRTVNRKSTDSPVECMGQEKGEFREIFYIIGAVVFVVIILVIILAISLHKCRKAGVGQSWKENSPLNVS

The compound `O=C(Nc1ccc(N2CCOCC2=O)cc1)[C@H]1Cc2ccccc2CN1C(=O)Cc1ccc(Cl)cc1` [Inhibitor 47, (R)-2-(2-(4-chlorophenyl)acetyl)-N-(4-(3-oxomorpholino)phenyl)-1,2,3,4-tetrahydro-isoquinoline-3-carboxamide] yielded a Ki in [1] of 135 nM. In addition, in assay [1] (FXa inhibition, relative to 13 (IC50 = 16.4 μM)), the “fold decrease in IC50 relative to inhibitor 13” value is reported as ~ 60 fold. In assay [1] (over FIIa, FVIIa, FIXa, FXIa, and FXIIa), the “selectivity for FXa inhibition over other coagulation enzymes” value was “at least 1852 fold”. The “Selectivity Index” value was more than 1852 in [2]; more than 3703 in assay [3]; more than 3703 in assay [4]; more than 1852 in assay [5]; more than 1852 in assay [6]; more than 370 in assay [7] (FXa over Bovine Trypsin). In addition, the IC50 in assay [7] is more than 100000 nM. For the same compound, in [7] (FXa over trypsin), the selectivity against trypsin entry is given as “at least 370 fold”. Besides, in assay [8], the selectivity against chymotrypsin is not below 279 fold.
On to `CN(C)Cc1nccn1-c1ccc(NC(=O)c2cc(C(F)(F)F)nn2-c2ccc3onc(N)c3c2)c(F)c1` [razaxaban, 1-(3′-aminobenzisoxazol-5′-yl)-3-trifluoromethyl-N-[2-fluoro-4-[(2′-dimethylamino-methyl)imidazol-1-yl]phenyl]-1H-pyrazole-5-carboxyamide hydrochloride], for which the “PT, concentration doubling the clotting time” value in [9] is 3.8 µM.

The term Ki denotes a measure of affinity in units of concentration, obtained from inhibition or displacement. Low readings indicate a stronger hold on the target, high ones a looser hold on the target. The IC50 is the point on the concentration scale where inhibition reaches its midpoint. High values mean weaker potency, low ones greater potency.
